In this assay the test system is vascular injury-induced neointimal hyperplasia. In words: Murine restenosis model: photoactivated rose bengal vascular injury of the femoral artery, histomorphometric analysis. The settings on record: for Stenosis Index (Mean ± SE), neointima/media ratio in areas of maximum neointimal hyperplasia, 4 weeks: 4 weeks after injury, i.p., EGF-Gen 0.1 mg/kg/dose twice daily for 28 days, Gen or quinazolines 2 mg/kg/dose once per day in 10% DMSO. It is filed as in vivo, C57B1/6 mice. On the procedure:
Three to four week old C57 B1/6 male mice (Taconic, Germantown, N.Y.) were housed in micro-isolator cages on a 12-hour day/night cycle and kept for 2 weeks on the Paigen's cocoa butter diet of 15.8% fat, 1.25% cholesterol and 0.5% sodium cholate (Harlan Teklad, Madison, Wis., U.S.A.) to induce high plasma cholesterol levels similar to those of patients with lipid disorders.
Mice were injected with 300 microliters of a 3 mg/ml photoactivated rose bengal solution (Aldrich, Milwaukee, Wis.) in sterile PBS via the tail vein and anesthetized with ketamine/xylazine solution (100 mg ketamine/kg and 5 […]). Photoactivation of rose bengal using percutaneous irradiation with a green light source (300 Watt Xenon arced lamp equipped with a 550 nanometer broad band interference filter, Oriel Scientific, Stratford, Conn.) was performed on the shaved left leg by placing a 3.2 mm glass fiber optic light guide directly into the left femoral vein/artery for 10 minutes. The unirradiated right femoral artery served as an internal control.
Following irradiation the mice were treated for either 14 days or 28 days with intraperitoneal injections of (1) EGF-Gen conjugate or unconjugated EGF (modified EGF not conjugated to genistein) at a dose level of 0. I mg/kg/dose once in the morning and once in the evening; or (2) 2 mg/kg/dose of unconjugated genistein or derivatives of 6,7-dimethoxyquinizalone dissolved in 10% DMSO once per day; or (3) with PBS.
At the times indicated, the animals were euthanized with ketamine/xylazine and perfused with PBS followed by 4% phosphate buffered formalin. PBS and formalin were pumped through the left ventricle of the heart and allowed to exit through a 3 mm incision through the interior wall of the right ventricle. […] Serial sections were examined for areas of maximum neointimal hyperplasia for which the ratios of neointima/media (stenosis index) were determined. […]
All numeric data are shown as mean±SEM. […] Cumulative percentage plots were analyzed using Wilcoxon statistics by Statview, Abacus Concepts, Inc., Berkeley, Calif. […]

SMILES strings stand for the structures.

With `O=c1c(-c2ccc(O)cc2)coc2cc(O)cc(O)c12` [Gen, 5,7,4'-trihydroxyisoflavone, reference compound], the “Stenosis Index (Mean ± SE), neointima/media ratio in areas of maximum neointimal hyperplasia, 4 weeks” value was 1.03 ± 0.18. Further, the “Stenosis Index (Mean ± SE), neointima/media ratio in areas of maximum neointimal hyperplasia, 4 weeks” value (listed as unconjugated Gen) is 1.03±0.18. Besides, the “Effect on neointimal hyperplasia / neointima formation (in words)” value (injured femoral arteries, EGF-Gen at less than 5% of the highest nontoxic dose) is “ineffective”.

The values are drawn from US6034053A, “EGF-isoflavone conjugates for the prevention of restenosis” (Wayne Hughes Institute, priority 1998, dated 2000).
